According to patent US10995068B2, “Synthetic sphingolipid-like molecules, drugs, methods of their synthesis and methods of treatment” (The Regents of the University of California, priority 2015, dated 2021):

Columns and labels:
PC3 cells = assay: Phosphorylation in intact cells by UPLC-MS/MS, PC3; type: in vitro ADME, human; conditions: 10 μM, 16 h incubation, percent of total compound recovered by UPLC-MS/MS
Protocol: Mass spectrometric quantification: One million PC3 or 5 million SW620 cells in one well of a 6 well plate are treated with 10 μM FTY720 or 5 for 16 h. Media (100 μl) is removed from the well and combined with 100 μl of acetonitrile. Cells are collected by scraping, pelleted, and re-suspended in 100 μl of HPLC-grade water followed by the addition of 100 μl acetonitrile. Seventy-five nanograms of the compounds not being quantified (FTY720 and FTY720-P for analysis of the phosphorylation of 5, or 5 and 5-P for the analysis of FTY720/FYT720-P) is added to serve as an internal standard to allow correction for loss of compound during sample preparation. […] Insoluble material is again removed by centrifugation and the supernatant analyzed for compound content. Twenty microliters of this de-proteinated sample is analyzed by UPLC-MS/MS (Waters Micromass Quattro Premier XE) equipped with a C18 reversed phase column (Waters) using an acetonitrile (+0.2% acetic acid) gradient elution. […] The cone voltages are 30V for FTY720 and 5, and 20V for FTY720-P and 5-P. A standard curve is generated using pure compounds to allow for quantification; standard curves were linear from 50-1000 ng/ml with an R^2 of 0.98 or greater. […]

[1] = tested on: mouse prostate cancer epithelial cells (mPCE); assay: LDL receptor, LDL uptake and lipid droplets in mPCE cells; type: cell-based
Protocol: To determine the sensitivity, SH-BC-893 was evaluated in a validated genetically-engineered mouse model for invasive castration-resistant prostate cancer that lacks p53 and PTEN expression exclusively in the prostate (pDKO) (Wu X, et al. Am J Clin Exp Urol. 2014; 2(2):111-20; Schwarzenböck S, et al. Theranostics. 2012; 2(3):318-330; Chen Z, et al. Nature. 2005; 436(7051):725-730; the disclosures of which are herein incorporated by reference). […] SH-BC-893, however, still produced a phenotype consistent with starvation as the bound NADH fraction increased and cell permeant nutrients protected mPCE cells from death (FIGS. 65A and 65C). Prostate cancer cells depend on exogenous LDL for growth and survival. […]
Light Microscopy: Brightfield and epifluorescence microscopy were conducted using a Nikon TE2000-S fluorescence microscope; confocal microscopy was performed on a Zeiss LSM780 confocal microscope or Nikon Eclipse Ti spinning disk confocal microscope. […] Co-localization was determined using JACoP plugin in ImageJ software. Macropinocytosis was measured after 16 h incubation in serum-free DMEM. p53−/−; LSL-K-RasG12D MEFs before (LSL) or after (KRasG12D) introduction of Cre were serum starved for 16 h and then treated with macropinocytosis inhibitor 5-(N-ethyl-N-isopropyl) amiloride (EIPA, 75 μM) for 1 h or SH-BC-893 for 6 h. […]

SMILES: CCCCCCCCc1ccc([C@H]2CCN[C@@H]2CO)cc1.Cl [Compound 5, (2S,3R)-2-(hydroxymethyl)-3-(4-octylphenyl)Pyrrolidinium chloride]
- efficiency of phosphorylation in intact cells (PC3 cells): phosphorylated slightly more efficiently than FTY720
- surface levels of the LDL receptor (LDLr), LDL uptake, and lipid droplet accumulation [1]: dramatically decreased
